Measured values published in US10653695B2, “Pharmaceutical formulations of neflamapimod” (EIP Pharma, LLC, priority 2018, dated 2020).

Assays:
[1] = cited from earlier work
[2] = Dissolution testing (USP <711>, Apparatus 2) of neflamapimod capsules and blends, including on stability; assay type: physicochemical; details: powder-in-capsule vs capsules stored at 40° C./75% RH; FIG. 1
From the text: USP Dissolution Acceptance Criteria. Dissolution testing of a drug product is a method for evaluating physiological availability that depends upon having the drug in a dissolved state. The United States Pharmacopoeia (“USP”) dissolution testing <USP 711> involves three stages with the acceptance criteria defined for each stage as a function of a quantity Q, a percentage of the label value that is established for each drug product.
Dissolution testing data described herein are generated according to the specifications shown below in Table 3 and using the procedure set forth by the United States Pharmacopeial Convention in USP <711>.
Determined by the procedure set forth in Example 1.1.

O=c1ncn2nc(Sc3ccc(F)cc3F)ccc2c1-c1c(Cl)cccc1Cl [Neflamapimod]
Solubility in water [1]: very low
Dissolution compared to the aged capsules [2]: better dissolution
